Here are results for two molecules from patent US20030229906A1, “Methods and compositions for the treatment of disorders of HIV infection” (priority 2002, published 2003).

For experiment [1], the system named is HIVAN in transgenic mice. The conditions noted are these: by inhibiting cellular Cdk9, an enzyme required for HIV-1 Tat to induce LTR-mediated virus transcription; cited from earlier work.
For experiment [2], the target named is Src tyrosine kinase (mouse) (UniProt P05480). In words: cell-based or functional assay.

As for `CN1CC[C@H](c2c(O)cc(O)c3c(=O)cc(-c4ccccc4Cl)oc23)[C@H](O)C1` [flavopiridol], in experiment [1], the “effect on HIVAN in transgenic mice” value is “ameliorates HIVAN”. In experiment [2], HIV-1 Nef yielded a specific activity of the Src tyrosine kinase (immune-complex kinase assay with [gamma-32P]-ATP and enolase, podocytes transduced with Nef or vector) of 2.3 fold.
